Test results from patent publication US20240209028A1, “CNP COMPOUNDS” (priority 2022, published 2024).
Starred links: 1 amine or outer side, 2 acyl side, 3 side chain; linkers in the order of their positions; H or OH if unused. Positions of bridges follow the written chain, without caps; N, C: chain ends. Non-standard residues stand in square brackets, D forms with d. Residues, ends and D or L forms follow the SMILES beside them. *: point of attachment. C18 diacid = O=C(O)CCCCCCCCCCCCCCCCC(=O)*; γGlu = O=C(O)[C@H](CCC(=O)[*:2])N[*:1]; AEEA = NCCOCCOCC(=O)O

Each compound was assayed against T1, human natriuretic peptide receptor 2 (hNPR2) (Homo sapiens, UniProt P20594) (assay: In vitro hNPR2 activity assay (cGMP GloSensor reporter, HEK293)). Conditions: 0% HSA; HEK293-hNPR2/GloSensor cells.
T1 construct: expressed in transfected cells; host or cells: HEK293 (ATCC CRL-1573), clone 35, co-transfected with pGloSensor-42F
T1 sequence (P20594 23-1047): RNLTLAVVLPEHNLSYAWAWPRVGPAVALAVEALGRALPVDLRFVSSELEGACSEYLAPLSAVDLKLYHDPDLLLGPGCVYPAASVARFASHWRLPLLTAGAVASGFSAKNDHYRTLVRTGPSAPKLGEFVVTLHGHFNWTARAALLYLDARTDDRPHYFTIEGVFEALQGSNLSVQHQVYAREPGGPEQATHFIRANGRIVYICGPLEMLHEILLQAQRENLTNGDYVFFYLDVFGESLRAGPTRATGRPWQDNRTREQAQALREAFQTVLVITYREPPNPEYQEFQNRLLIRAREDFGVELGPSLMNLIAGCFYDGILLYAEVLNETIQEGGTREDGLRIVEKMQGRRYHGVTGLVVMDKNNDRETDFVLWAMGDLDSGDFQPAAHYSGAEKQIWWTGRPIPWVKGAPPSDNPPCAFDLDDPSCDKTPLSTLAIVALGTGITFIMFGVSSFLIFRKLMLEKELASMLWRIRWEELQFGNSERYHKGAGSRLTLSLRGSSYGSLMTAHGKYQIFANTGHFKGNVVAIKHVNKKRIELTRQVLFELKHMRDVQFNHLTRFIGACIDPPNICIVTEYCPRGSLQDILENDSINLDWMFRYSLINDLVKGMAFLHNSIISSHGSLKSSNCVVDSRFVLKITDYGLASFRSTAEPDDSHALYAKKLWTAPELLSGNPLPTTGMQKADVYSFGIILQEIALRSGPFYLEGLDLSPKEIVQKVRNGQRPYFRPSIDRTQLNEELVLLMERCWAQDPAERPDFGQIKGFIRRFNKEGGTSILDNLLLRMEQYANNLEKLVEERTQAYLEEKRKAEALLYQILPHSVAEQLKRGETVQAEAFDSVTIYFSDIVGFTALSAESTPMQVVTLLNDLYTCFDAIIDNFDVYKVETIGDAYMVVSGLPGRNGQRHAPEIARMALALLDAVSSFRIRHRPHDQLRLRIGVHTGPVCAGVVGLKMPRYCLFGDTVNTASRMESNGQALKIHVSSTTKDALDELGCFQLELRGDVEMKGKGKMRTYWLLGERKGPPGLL
Format: cell-based
Outline: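 Potency is the EC50 from a four-parameter logistic fit, also expressed relative to the in-plate CNP22 control (×100), with at least two replicates. Compounds (ten concentrations, […], HSA-free diluent with 1% OVA, 0.01% Tween20) were incubated 30 min at 37 °C on HEK293 cells co-expressing hNPR2 and a GloSensor cGMP luciferase. Luminescence detected with Bright-Glo.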

Row | SMILES | EC50
1 | CC[C@H](C)[C@@H]1NC(=O)[C@H](CCCNC(=N)N)NC(=O)[C@H](CC(=O)O)NC(=O)[C@H](CC(C)C)NC(=O)[C@H](CCCCN)NC(=O)[C@H](CC(C)C)NC(=O)CNC(=O)[C@H](Cc2ccccc2)NC(=O)[C@@H](NC(=O)CNC(=O)[C@H](CCC(N)=O)NC(=O)[C@H](CO)NC(=O)[C@H](CC(C)C)NC(=O)CNC(=O)[C@H](CCCCN)NC(=O)[C@H](CCCCN)NC(=O)[C@H](CCC(N)=O)NC(=O)[C@H](C)NC(=O)CNC(=O)[C@H](CCCCN)NC(=O)[C@H](Cc2ccc(O)cc2)NC(=O)[C@H](CCCCN)NC(=O)[C@H](CCCNC(=N)N)NC(=O)[C@H](C)NC(=O)COCCOCCNC(=O)COCCOCCNC(=O)COCCOCCNC(=O)COCCOCCNC(=O)CC[C@H](NC(=O)CC[C@H](NC(=O)CC[C@H](NC(=O)CC[C@H](NC(=O)CC[C@H](NC(=O)CCCCCCCCCCCCCCCCC(=O)O)C(=O)O)C(=O)O)C(=O)O)C(=O)O)C(=O)O)CSSC[C@@H](C(=O)O)NC(=O)CNC(=O)[C@H](CC(C)C)NC(=O)CNC(=O)[C@H](CO)NC(=O)[C@H](CC(C)C)NC(=O)[C@H](CO)NC(=O)CNC1=O [compound 1463] ({C18 diacid-γGlu-γGlu-γGlu-γGlu-γGlu-AEEA-AEEA-AEEA-AEEA}-ARKYKGAQKKGLSQGCFGLKLDRIGSLSGLGC-OH; disulfide 16-32) | 0.3 nM

Same assay, conditions: potency relative to CNP22 (0065)

Row | SMILES | hNPR2 0% HSA. [EC50% rel CNP]
2 | CC[C@H](C)[C@@H]1NC(=O)[C@H](CCCNC(=N)N)NC(=O)[C@H](CC(=O)O)NC(=O)[C@H](CC(C)C)NC(=O)[C@H](CCCCN)NC(=O)[C@H](CC(C)C)NC(=O)CNC(=O)[C@H](Cc2ccccc2)NC(=O)[C@@H](NC(=O)CNC(=O)[C@H](CCC(N)=O)NC(=O)[C@H](CO)NC(=O)[C@H](CC(C)C)NC(=O)CNC(=O)[C@H](CCCCN)NC(=O)[C@H](CCCCN)NC(=O)[C@H](CCC(N)=O)NC(=O)[C@H](C)NC(=O)CNC(=O)[C@H](CCCCN)NC(=O)[C@H](Cc2ccc(O)cc2)NC(=O)[C@H](CCCCN)NC(=O)[C@H](CCCNC(=N)N)NC(=O)[C@H](C)NC(=O)COCCOCCNC(=O)COCCOCCNC(=O)COCCOCCNC(=O)COCCOCCNC(=O)CC[C@H](NC(=O)CC[C@H](NC(=O)CC[C@H](NC(=O)CC[C@H](NC(=O)CC[C@H](NC(=O)CCCCCCCCCCCCCCCCC(=O)O)C(=O)O)C(=O)O)C(=O)O)C(=O)O)C(=O)O)CSSC[C@@H](C(=O)O)NC(=O)CNC(=O)[C@H](CC(C)C)NC(=O)CNC(=O)[C@H](CO)NC(=O)[C@H](CC(C)C)NC(=O)[C@H](CO)NC(=O)CNC1=O [compound 1463] ({C18 diacid-γGlu-γGlu-γGlu-γGlu-γGlu-AEEA-AEEA-AEEA-AEEA}-ARKYKGAQKKGLSQGCFGLKLDRIGSLSGLGC-OH; disulfide 16-32) | 20.0%
3 | CC[C@H](C)[C@@H]1NC(=O)[C@H](CCCNC(=N)N)NC(=O)[C@H](CC(=O)O)NC(=O)[C@H](CC(C)C)NC(=O)[C@@H]2CCCN2C(=O)[C@H](CC(C)C)NC(=O)CNC(=O)[C@H](Cc2ccccc2)NC(=O)[C@@H](NC(=O)CNC(=O)[C@H](CCC(N)=O)NC(=O)[C@H](CO)NC(=O)[C@H](CC(C)C)NC(=O)CNC(=O)[C@H](CCCCN)NC(=O)[C@H](CCCCN)NC(=O)[C@H](CC(N)=O)NC(=O)[C@H](C)NC(=O)CNC(=O)[C@H](CCCCN)NC(=O)[C@H](Cc2ccc(O)cc2)NC(=O)[C@H](CCCCN)NC(=O)[C@H](CCCNC(=N)N)NC(=O)[C@H](C)NC(=O)COCCOCCNC(=O)COCCOCCNC(=O)COCCOCCNC(=O)COCCOCCNC(=O)CC[C@H](NC(=O)CC[C@H](NC(=O)CC[C@H](NC(=O)CC[C@H](NC(=O)CC[C@H](NC(=O)CCCCCCCCCCCCCCCCC(=O)O)C(=O)O)C(=O)O)C(=O)O)C(=O)O)C(=O)O)CSSC[C@@H](C(=O)O)NC(=O)CNC(=O)[C@H](CC(C)C)NC(=O)CNC(=O)[C@H](CO)NC(=O)[C@H](CC(C)C)NC(=O)[C@H](CO)NC(=O)CNC1=O [compound 1464] ({C18 diacid-γGlu-γGlu-γGlu-γGlu-γGlu-AEEA-AEEA-AEEA-AEEA}-ARKYKGANKKGLSQGCFGLPLDRIGSLSGLGC-OH; disulfide 16-32; C-terminus assumed) | 48.8%
4 | CC[C@H](C)[C@@H]1NC(=O)[C@H](CCCNC(=N)N)NC(=O)[C@H](CC(=O)O)NC(=O)[C@H](CC(C)C)NC(=O)[C@@H]2CCCN2C(=O)[C@H](CC(C)C)NC(=O)CNC(=O)[C@H](Cc2ccccc2)NC(=O)[C@@H](NC(=O)CNC(=O)[C@H](CCC(N)=O)NC(=O)[C@H](CO)NC(=O)[C@H](CC(C)C)NC(=O)CNC(=O)[C@H](CCCCN)NC(=O)[C@H](CCCCN)NC(=O)[C@H](CCC(N)=O)NC(=O)[C@H](C)NC(=O)CNC(=O)[C@H](CCCCN)NC(=O)[C@H](Cc2ccc(O)cc2)NC(=O)[C@H](CCCCN)NC(=O)[C@H](CCCNC(=N)N)NC(=O)[C@H](C)NC(=O)COCCOCCNC(=O)COCCOCCNC(=O)COCCOCCNC(=O)COCCOCCNC(=O)CC[C@H](NC(=O)CC[C@H](NC(=O)CC[C@H](NC(=O)CC[C@H](NC(=O)CC[C@H](NC(=O)CCCCCCCCCCCCCCCCC(=O)O)C(=O)O)C(=O)O)C(=O)O)C(=O)O)C(=O)O)CSSC[C@@H](C(=O)O)NC(=O)CNC(=O)[C@H](CC(C)C)NC(=O)CNC(=O)[C@H](CO)NC(=O)[C@H](CCSC)NC(=O)[C@H](CO)NC(=O)CNC1=O [compound 1465] ({C18 diacid-γGlu-γGlu-γGlu-γGlu-γGlu-AEEA-AEEA-AEEA-AEEA}-ARKYKGAQKKGLSQGCFGLPLDRIGSMSGLGC-OH; disulfide 16-32) | 24.0%
5 | CC[C@H](C)[C@@H]1NC(=O)[C@H](CCCNC(=N)N)NC(=O)[C@H](CC(=O)O)NC(=O)[C@H](CC(C)C)NC(=O)[C@@H]2CCCN2C(=O)[C@H](CC(C)C)NC(=O)CNC(=O)[C@H](Cc2ccccc2)NC(=O)[C@@H](NC(=O)CNC(=O)[C@H](CCC(N)=O)NC(=O)[C@H](CO)NC(=O)[C@H](CC(C)C)NC(=O)CNC(=O)[C@H](CCCCN)NC(=O)[C@H](CCCCN)NC(=O)[C@H](CCC(N)=O)NC(=O)[C@H](C)NC(=O)CNC(=O)[C@H](CCCCN)NC(=O)[C@H](Cc2ccc(O)cc2)NC(=O)[C@H](CCCCN)NC(=O)[C@H](CCCNC(=N)N)NC(=O)[C@H](C)NC(=O)[C@H](CCC(N)=O)NC(=O)[C@@H]2CCCN2C(=O)[C@H](Cc2c[nH]cn2)NC(=O)[C@H](CCC(=O)O)NC(=O)[C@H](CCC(N)=O)NC(=O)COCCOCCNC(=O)COCCOCCNC(=O)CC[C@H](NC(=O)CC[C@H](NC(=O)CC[C@H](NC(=O)CC[C@H](NC(=O)CC[C@H](NC(=O)CCCCCCCCCCCCCCCCC(=O)O)C(=O)O)C(=O)O)C(=O)O)C(=O)O)C(=O)O)CSSC[C@@H](C(=O)O)NC(=O)CNC(=O)[C@H](CC(C)C)NC(=O)CNC(=O)[C@H](CO)NC(=O)[C@H](CC(C)C)NC(=O)[C@H](CO)NC(=O)CNC1=O [compound 1471] ({C18 diacid-γGlu-γGlu-γGlu-γGlu-γGlu-AEEA-AEEA}-QEHPQARKYKGAQKKGLSQGCFGLPLDRIGSLSGLGC-OH; disulfide 21-37) | 40.2%
6 | CC[C@H](C)[C@@H]1NC(=O)[C@H](CCCNC(=N)N)NC(=O)[C@H](CC(=O)O)NC(=O)[C@H](CC(C)C)NC(=O)[C@@H]2CCCN2C(=O)[C@H](CC(C)C)NC(=O)CNC(=O)[C@H](Cc2ccccc2)NC(=O)[C@@H](NC(=O)CNC(=O)[C@H](CCC(N)=O)NC(=O)[C@H](CO)NC(=O)[C@H](CC(C)C)NC(=O)CNC(=O)[C@H](CCCCN)NC(=O)[C@H](CCCCN)NC(=O)[C@H](CCC(N)=O)NC(=O)[C@H](C)NC(=O)CNC(=O)[C@H](CCCCN)NC(=O)[C@H](Cc2ccc(O)cc2)NC(=O)[C@H](CCCCN)NC(=O)[C@H](CCCNC(=N)N)NC(=O)[C@H](C)NC(=O)[C@H](CCC(N)=O)NC(=O)[C@@H]2CCCN2C(=O)[C@H](Cc2c[nH]cn2)NC(=O)[C@H](CCC(=O)O)NC(=O)[C@H](CCC(N)=O)NC(=O)COCCOCCNC(=O)COCCOCCNC(=O)CC[C@H](NC(=O)CC[C@H](NC(=O)CC[C@H](NC(=O)CC[C@H](NC(=O)CCCCCCCCCCCCCCCCC(=O)O)C(=O)O)C(=O)O)C(=O)O)C(=O)O)CSSC[C@@H](C(=O)O)NC(=O)CNC(=O)[C@H](CC(C)C)NC(=O)CNC(=O)[C@H](CO)NC(=O)[C@H](CC(C)C)NC(=O)[C@H](CO)NC(=O)CNC1=O [compound 1472] ({C18 diacid-γGlu-γGlu-γGlu-γGlu-AEEA-AEEA}-QEHPQARKYKGAQKKGLSQGCFGLPLDRIGSLSGLGC-OH; disulfide 21-37; C-terminus assumed) | 52.0%
7 | CC[C@H](C)[C@@H]1NC(=O)[C@H](CCCNC(=N)N)NC(=O)[C@H](CC(=O)O)NC(=O)[C@H](CC(C)C)NC(=O)[C@@H]2CCCN2C(=O)[C@H](CC(C)C)NC(=O)CNC(=O)[C@H](Cc2ccccc2)NC(=O)[C@@H](NC(=O)CNC(=O)[C@H](CCC(N)=O)NC(=O)[C@H](CO)NC(=O)[C@H](CC(C)C)NC(=O)CNC(=O)[C@H](CCCCN)NC(=O)[C@H](CCCCN)NC(=O)[C@H](CCC(N)=O)NC(=O)[C@H](C)NC(=O)CNC(=O)[C@H](CCCCN)NC(=O)[C@H](Cc2ccc(O)cc2)NC(=O)COCCOCCNC(=O)COCCOCCNC(=O)COCCOCCNC(=O)COCCOCCNC(=O)[C@H](CCC(=O)O)NC(=O)[C@H](CCC(=O)O)NC(=O)[C@H](CCC(=O)O)NC(=O)CCCCCCCCCCCCCCCCC(=O)O)CSSC[C@@H](C(=O)O)NC(=O)CNC(=O)[C@H](CC(C)C)NC(=O)CNC(=O)[C@H](CO)NC(=O)[C@H](CC(C)C)NC(=O)[C@H](CO)NC(=O)CNC1=O [compound 1481] ({C18 diacid}-EEE[AEEA][AEEA][AEEA][AEEA]YKGAQKKGLSQGCFGLPLDRIGSLSGLGC-OH; disulfide 20-36) | 35.1%
